Test results published in US9610463B2, “Cosmetic or dermatological preparation comprising collagen, chitosan, glycosylaminoglycan and cell growth promoting peptide and/or cellular complex” (BEIERSDORF AG, priority 2009, dated 2017).
Values joined by “and” are separate entries in the source; they are usually repeats but may differ in a detail not shown here. Identical values can stand only once.

Tests used:
Type in all cases: cell-based
[1] = system: HacaT keratinocyte cell line; assay: ECM expression (ELISA): laminine expression by keratinocyte cells; settings: control = 100
Experimental: (§1) The effect of the addition of MPC and MPC+IDP4 on the extracellular matrix expression of procollagen, fibronectin, elastin, hyaluronic acid and laminine by the following cells was investigated: • 1. HacaT keratinocyte cell line (hyaluronic acid, laminine) • 2. NIH3T3 fibroblast cell line (procollagen, fibronectin, elastin).
(§2) Method: • (1) Cell seeding • (2) Starvation for 24 h with serum-free DMEM media • (3) Sample treatment • (4) Cultivation for 72 h • (5) Cell supernatant collection • (6) Assay
(§3) Assay (ELISA): • (a) Coating with capture antibody • (b) Blocking (blocking solution) • (c) Aspiration and washing each well five times • (d) Addition of sample and standard to each well • (e) Aspiration and washing each well five times • (f) Addition of conjugate to each well • (g) Aspiration and washing each well five times • (h) Addition of substrate solution to each well • (i) Addition of stop solution to each well • (j) Reading of optical density at 450 nm
as §1, with “GPVE” for “MPC”, “GPVE+IDP4” for “MPC+IDP4”
as §1, with “GPVE/MPC” for “the addition of MPC”, “GPVE/MPC+IDP4” for “MPC+IDP4”

mesenchymal stem cells = assay: Protective effect against H2O2 (anti-apoptosis effect); settings: W/O H2O2; With H2O2 0% MPC = 100
Experimental: The protective (anti-apoptosis) effect of the addition of MPC and MPC+IDP4 on mesenchymal stem cells against H2O2 (free radical former) was tested.
Method: • (1) Cell seeding • (2) Starvation for 24 h with serum-free DMEM media • (3) Sample treatment • (4) Cultivation for 24 h • (5) Treatment with 5 mM H2O2 • (6) Incubation for 24 h • (7) Cell growth assay

[2] = system: NIH3T3 fibroblast cell line; assay: ECM expression (ELISA): procollagen expression by fibroblast cells; settings: control = 100
Experimental: as §1, §2, §3
as §1, with “GPVE” for “MPC”, “GPVE+IDP4” for “MPC+IDP4”
as §1, with “GPVE/MPC” for “the addition of MPC”, “GPVE/MPC+IDP4” for “MPC+IDP4”

[3] = system: MSC (mesenchymal stem cells); assay: Cell growth assay, mesenchymal stem cells
Experimental: (§4) The effect of the addition of MPC vs. (MPC+IDP4), GPVE vs. (GPVE+IDP4), and GPVE/MPC vs. (GPVE/MPC=IDP4) on the growth of the following cells was investigated: • 1. HacaT keratinocyte cell line • 2. NIH3T3 fibroblast cell line • 3. MSC (mesenchymal stem cells).
(§5) Method: • (1) Cell seeding • (2) Starvation for 24 h with serum-free DMEM media • (3) Sample treatment • (4) Cultivation for 72 h • (5) Cell harvesting • (6) Cell growth assay

[4] = system: NIH3T3 fibroblast cell line; assay: Cell growth assay, NIH3T3 fibroblast cell line
Experimental: as §4, §5

[5] = system: NIH3T3 fibroblast cell line; assay: ECM expression (ELISA): elastin expression by fibroblast cells; settings: control = 100
Experimental: as §1, §2, §3
as §1, with “GPVE” for “MPC”, “GPVE+IDP4” for “MPC+IDP4”
as §1, with “GPVE/MPC” for “the addition of MPC”, “GPVE/MPC+IDP4” for “MPC+IDP4”

[6] = system: HacaT keratinocyte cell line; assay: ECM expression (ELISA): hyaluronic acid expression by keratinocyte cells; settings: control = 100
Experimental: Method: • (1) Cell seeding • (2) Starvation for 24 h with serum-free DMEM media • (3) Sample treatment • (4) Cultivation for 72 h • (5) Cell supernatant collection • (6) Assay […]

[7] = system: HacaT keratinocyte cell line; assay: Cell growth assay, HacaT keratinocyte cell line
Experimental: as §4, §5

[8] = system: NIH3T3 fibroblast cell line; assay: ECM expression (ELISA): fibronectin expression by fibroblast cells; settings: control = 100
Experimental: as §1, §2, §3
as §1, with “GPVE” for “MPC”, “GPVE+IDP4” for “MPC+IDP4”
as §1, with “GPVE/MPC” for “the addition of MPC”, “GPVE/MPC+IDP4” for “MPC+IDP4”

[9] = alone at the concentration employed (1 μg)

oligopeptide-21 [IDP4] showed a laminine % ([1]; 10 ng/ml) of 115%, a laminine % ([1]; 100 ng/ml) of 135% and a laminine % ([1]; 1 μg/ml) of 175%. The laminine % ([1]; 10 μg/ml) was 177.5%, the “cell growth, MSC” value (mesenchymal stem cells) was 175 and the procollagen % ([2]; 10 ng/ml) was 175%. It also gave a procollagen % ([2]; 100 ng/ml) of 226%, a procollagen % ([2]; 1 μg/ml) of 302% and a procollagen % ([2]; 10 μg/ml) of 333%. The “growth, MSC (%)” value ([3]; 10 μg/ml, control = 100) was 145%, the “significance of increase in growth, mesenchymal stem cells” value [3, 9] was “did not afford any statistically significant increase in growth” and the “growth, NIH3T3 (%)” value ([4]; 10 μg/ml, control = 100) was 260%. The “significance of increase in growth, fibroblast cell line” value [4, 9] was “did not afford any statistically significant increase in growth”, the elastin % ([5]; 10 ng/ml) was 131% and the elastin % ([5]; 100 ng/ml) was 127%. The elastin % ([5]; 1 μg/ml) was 137%, the elastin % ([5]; 10 μg/ml) was 131% and 137% and the hyaluronic acid % ([6]; 10 ng/ml) was 110%. It also gave a hyaluronic acid % ([6]; 100 ng/ml) of 137.5%, a hyaluronic acid % ([6]; 1 μg/ml) of 150% and a hyaluronic acid % ([6]; 10 μg/ml) of 160%. The “growth, Haca T (%)” value ([7]; 10 μg/ml, control = 100) was 148%, the “significance of increase in growth, keratinocyte cell line” value [7, 9] was “did not afford any statistically significant increase in growth” and the fibronectin % ([8]; 10 ng/ml) was 101%. For the same substance, the fibronectin % ([8]; 100 ng/ml) was 105%, the fibronectin % ([8]; 1 μg/ml) was 116% and the fibronectin % ([8]; 10 μg/ml) was 158%.
